This is an account of results in US8188268B2, “Porous crystalline saccharide, its preparation and uses” (Kabushiki Kaisha Hayashibara Seibutsu Kagaku Kenkyujo, priority 2005, dated 2012).

Where two headings read alike, the source gives them in different places.

Common to all, as to type: physicochemical
A short description of series [1]: Specific surface area by nitrogen adsorption isotherms (BET). The following applies: nitrogen adsorption isotherms, BET; listed as Anhydrous crystalline trehalose (Conventional product, Control). How it is done: Specific surface area of the porous anhydrous crystalline trehalose was measured by the nitrogen adsorption isotherms using “MODEL ASAP-2400”, a specific surface area/pore size distribution analyzer commercialized by Micromeritics, Georgia, USA. […] The result was analyzed by the BET (Brunnauer, Emmet, and Teller) method. The commercial anhydrous crystalline trehalose, a reagent grade, commercialized by Hayashibara Biochemical Laboratories Inc., Okayama, Japan, was used as a control. […] Further, those pore size distribution charts are in FIG. 19. […] The results of the analysis on the specific surface area and the pore size distribution are summarized in Table 7, and the pore size distribution chart was in FIG. 24. As a control, “MALTOSE OM”, a hydrous crystalline maltose product with maltose purity of 98% or higher, produced by Hayashibara Co., Ltd., Okayama, Japan, was used.

Series [2] can be described thus: Oil-keeping ability with salad oil. On the set-up: key to Oil-keeping ability: (5 g salad oil / g saccharide added at endpoint) x 100. Conditions: (5 g salad oil / amount of added saccharide) x 100. How it is done: The oil-keeping ability of each crystalline saccharide was measured using the porous anhydrous crystalline trehalose prepared by treating at 70° C. for 60 min in Example 1, the control hydrous crystalline trehalose, and the control anhydrous crystalline trehalose as crystalline trehalose samples; and the porous anhydrous crystalline maltose prepared by the method in Example 3, the control hydrous crystalline β-maltose, and the control anhydrous crystalline α-maltose, and the control anhydrous crystalline β-maltose as crystalline maltose samples, and the results were compared.
The measurement of the oil-keeping ability of the crystalline saccharide was carried out according to the method disclosed in Japanese Patent Kokai No. 31,650/84. Five grams of “NISSHIN SALAD OIL”, a salad oil commercialized by Nisshin OiliO Group, Ltd., Tokyo, Japan, was placed in a 50-ml plastic container, and then gradually admixed with each powdery crystalline saccharide with stirring. […] When the amount of the mixed saccharide is further increased, the agglomerate increase in solidity and then loosen. The point that the agglomerate is loosened is estimated to be the endpoint and the oil-keeping ability was calculated using the following formula. Oil-Keeping Ability =(The amount of salad oil(5 g)/the amount of added PCS*)×100 *: Powdery crystalline saccharide tm Formula 1

Series [3] is described as follows: Flax seed oil powder: keeping of powdery form. Conditions: 1 part flax seed oil + 10 parts saccharide as base. How it is done: One part by weight of flax seed oil was admixed with 10 parts by weight of the porous anhydrous crystalline trehalose, prepared by treating at 70° C. for 60 min in Example 1, and then the mixture was kneaded to make into a powdery product. In the same manner, powdery products were prepared by using “TREHA®”, hydrous crystalline trehalose commercialized by Hayashibara Shoji Inc., Okayama, Japan, and anhydrous crystalline trehalose, prepared from hydrous crystalline trehalose by drying in vacuo at a high temperature according to the conventional method, as controls. […] The flaxseed oil powder can be preferably used as a supplement.

Series [4] in a line: Dissolution test against cold water at 10° C. The following applies: 20 ml water 10° C., about 300 rpm, 0.5 g trehalose or 0.2 g maltose; for Time required for dissolution, Average: average of 5. How it is done:
A dissolution test against cold water at 10° C. was carried out using the porous anhydrous crystalline trehalose prepared by treating at 70° C. for 60 min in Example 1, the porous anhydrous crystalline maltose prepared by the method in Example 3, and the porous hydrous crystalline maltose prepared by the method in Example 5, as samples. The results were compared with those of the controls, anhydrous crystalline trehalose, hydrous crystalline trehalose, and hydrous crystalline maltose.
Twenty milliliters of 10° C.-cold water was placed in a test tube with an internal diameter of 18 mm, and then stirred using a stirring bar. A crystalline saccharide sample was put into the test tube, and the time required for the complete dissolution (for the disappearance of precipitate particles) was measured. The amount of samples was set to be 0.5 g in the case of trehalose and to be 0.2 g in the case of maltose, and the stirring rate was set to be about 300 rpm in any case. The measurement of time for dissolution under the above conditions was carried out 5-times at each sample.

Series [5] in a line: Preservation test of flax seed oil powder, volatile aldehydes by GC. The following applies: flax seed oil powder with this base. How it is done:
As disclosed in Japanese Patent Kokai No. 123,195/2001 applied for by the same applicant of the present invention, it has been known that trehalose inhibits the decomposition of fatty acids and the formation of volatile aldehydes. Therefore, a preservation test of the flax seed oil powders were carried out according to the following method by using the flax seed oil powders prepared in Example 9 by using the porous anhydrous crystalline trehalose of the present invention or the control anhydrous crystalline trehalose as powderizing bases, and the amounts of the formed volatile aldehydes were compared.
One gram each of the flax seed oil powder was put into two 20 ml-vial, sealed with Butyl-rubber stopper, and then preserved in an incubator at 40° C. for three weeks. The vial was collected at the point of before the preservation or after preserving for 21 days and heated at 80° C. for 5 min. Then, 2 ml of vapor phase gas in the vial was directly subjected to gas chromatography (GC) analysis to determine the amount of volatile aldehydes. GC analysis was carried out according to the following conditions.
• Gas chromatograph: GC-17B, produced by Shimadzu Corporation, Kyoto, Japan; • Column: TC-FFAP capillary column (ID 0.52 mm×30 m), produced by GL Sciences Inc., Tokyo, Japan; • Column temperature: 40° C. to 100° C.

Series [6] can be described thus: Pore size distribution by the mercury filling method.
Setting [7] is: listed as control anhydrous crystalline trehalose.
[8] abbreviates: 21 days after preservation at 40° C.
[9] abbreviates: listed as control hydrous crystalline trehalose.

In the case of `OC[C@H]1O[C@H](O[C@H]2O[C@H](CO)[C@@H](O)[C@H](O)[C@H]2O)[C@H](O)[C@@H](O)[C@@H]1O` [Anhydrous crystalline trehalose (Control)] [α-D-glucosyl α-D-glucoside, reference compound], the Specific surface area in series [1] is 0.465 m^2/g. The Oil-keeping ability in series [2] was determined as 38.5. Further, the Oil-keeping ability in series [2] (setting [7]) turned out to be 38.5. For the same compound, in series [3] (setting [7]), the “Powdery form of flax seed oil powder” value is listed as “could not keep powdery forms”. Moreover, in series [4], the “Time required for dissolution, No. 1” value was 90 s; the “Time required for dissolution, No. 2” value amounted to 87 s; the “Time required for dissolution, No. 3” value turned out to be 96 s; the “Time required for dissolution, No. 4” value is 91 s. Moreover, in series [4], the “Time required for dissolution, No. 5” value was 86 s and the “Time required for dissolution, Average” value amounted to 90 s. For the same compound, in series [5] (setting [8]), the “2,4-Decadienal” value worked out at 7.01 μg/ml-vapor phase gas, the 2-Heptenal worked out at 0.01 μg/ml-vapor phase gas, the 2-Hexenal was determined as 0.02 μg/ml-vapor phase gas and the 2-Nonenal stood at 0.27 μg/ml-vapor phase gas. For the same compound, in series [5] (setting [8]), the 2-Octenal came to 0.66 μg/ml-vapor phase gas, the Acetoaldehyde came to 8.99 μg/ml-vapor phase gas, the Butanal was 0.93 μg/ml-vapor phase gas and the Hexanal was found to be 0.16 μg/ml-vapor phase gas. In series [5] (setting [8]), the Pentanal stood at 0.55 μg/ml-vapor phase gas, the Propanal is listed as 12.98 μg/ml-vapor phase gas and the Total aldehydes is listed as 31.58 μg/ml-vapor phase gas. For the same compound, in series [5] (before preservation), the “2,4-Decadienal” value is 6.77 μg/ml-vapor phase gas, the 2-Heptenal is 0.00 μg/ml-vapor phase gas, the 2-Hexenal was 0.00 μg/ml-vapor phase gas and the 2-Nonenal was 0.01 μg/ml-vapor phase gas. In series [5] (before preservation), this compound showed a 2-Octenal of 0.23 μg/ml-vapor phase gas, an Acetoaldehyde of 8.91 μg/ml-vapor phase gas, a Butanal of 0.66 μg/ml-vapor phase gas and a Hexanal of 0.07 μg/ml-vapor phase gas. Also, in series [5] (before preservation), the Pentanal is given as 0.13 μg/ml-vapor phase gas, the Propanal stood at 10.24 μg/ml-vapor phase gas and the Total aldehydes worked out at 27.02 μg/ml-vapor phase gas. Moreover, in series [6], the Intrusion volume was determined as 0.03 mL/g and the Mode pore diameter was found to be 0.46 μm. In series [6] (control maltose values are from space between particles, not pores), this compound showed a Median pore diameter of 0.40 μm. In series [6] (setting [7]), this compound came in with an Intrusion volume of 0.03 mL/g.
In series [2], `OC[C@H]1O[C@H](O[C@H]2O[C@H](CO)[C@@H](O)[C@H](O)[C@H]2O)[C@H](O)[C@@H](O)[C@@H]1O` [Hydrous crystalline trehalose (Control), α-D-glucosyl α-D-glucoside] came in with an Oil-keeping ability of 38.5. In series [2] (setting [9]), this compound returned an Oil-keeping ability of 38.5. For the same compound, in series [3] (setting [9]), the “Powdery form of flax seed oil powder” value was “could not keep powdery forms”. Besides, in series [4], the “Time required for dissolution, No. 1” value worked out at 106 s; the “Time required for dissolution, No. 2” value turned out to be 130 s; the “Time required for dissolution, No. 3” value was found to be 121 s; the “Time required for dissolution, No. 4” value turned out to be 135 s. Moreover, in series [4], the “Time required for dissolution, No. 5” value turned out to be 123 s and the “Time required for dissolution, Average” value is 123 s.
